Reference: patent US8652786B2, “Method for predicting responsiveness to drugs” (The General Hospital Corporation, priority 2005, dated 2014)
“Also recorded” adds a separate entry of the source.

Columns and labels:
[1] = test system: NCI-H1650; test: Drug-sensitivity screen of 40 cancer cell lines, NCI-H1650; assay type: cell-based, human; details: gefitinib 100 nM to 10 μM, 3 days, DNA staining; del E746-A750 EGFR
Experimental: (§1) Cells were cultured and analyzed in triplicate within microtiter plates. Cell numbers were quantitated by DNA staining, 3 days after addition of various concentrations of drugs and expressed as a fraction of matched untreated cultures. For each drug concentration, cell lines with relative drug sensitivity (<50% of untreated control growth) are shown in darkest staining, intermediate sensitivity (50-75%) in […], and drug insensitivity (>75%) in intermediate shading.
(§2) Cellular Proliferation and Viability Assays. […] For quantitation of cellular proliferation, cells were fixed at appropriate time points in 4% paraformaldehyde, and all plates were stained simultaneously by using the fluorescent nucleic acid stain SYTO60 (Molecular Probes) at 1:8,000 dilution in PBS. Quantitation was done by measuring the […] at 700 nm by using the Odyssey Imaging System (LI-COR, Lincoln, Nebr.). The relative cell number was obtained by normalizing treated samples to matched untreated specimens. For quantitation of cell viability, cultures were stained after 4 days by using the MTT assay. Briefly, 10 μl of 5 mg/ml MTT (Thiazolyl blue) solution was added to each well and incubated for 2 h at 37° C. […] The results were quantitated spectrophotometrically by using a test wavelength of 570 nm and a reference wavelength of 630 nm.

[2] = test system: NCI-H1975 NSCLC cell line; test: Drug-sensitivity screen of 40 cancer cell lines, NCI-H1975; assay type: cell-based, human; details: gefitinib; L858R and T790M EGFR
Experimental: as §1, §2

[3] = test system: MET; details: Morotti et al. 2002; cited from earlier work
[4] = test system: MET; details: Morotti et al. 2002; cited from earlier work; remark: listed apart in the source
[5] = test system: GTL-16 gastric carcinoma cells; details: GTL-16 cells; cited from earlier work
[6] = test system: gastric cancer cell line MKN45; test: Drug-sensitivity screen of 40 cancer cell lines, MKN45; assay type: cell-based, human; details: 3 days, DNA staining; MET-amplified line
Experimental: as §1, §2

[7] = test system: ERK1/2, AKT, STAT3, and FAK; test: Immunoblot of baseline phosphorylation of downstream effectors in Amp+ cells; assay type: cell-based, human; details: 50 nM, 3 h
Experimental: (§3) FIG. 3: Constitutive activation of MET and activation of downstream signaling pathways in Amp^+ cells. (FIG. 3A) MET is constitutively activated in the Amp^+ cells. […] (FIG. 3B) Effect of HGF on MET activation in Amp^+ and Amp^− cells (representative immunoblots). Cells were serum-starved for 24 h and treated with 40 ng/ml HGF for 10 minutes. Phosphorylation of MET (Y1234/1235) is unaltered in Amp^+ cells treated with HGF, but it is induced by HGF in Amp^− cells (total MET control).
(§4) Cells are costained with DAPI to show nuclei.
(§5) Cells were either directly lysated in 2× sample buffer or in RIPA buffer (150 mM NaCl, 50 mM Tris pH 8.0, 1% NP40, 0.5% DOC, 0.1% SDS, 1 mM EDTA, 10 mM NaF, 1 mM Na-orthovanadate, 1× protease inhibitor cocktail (Roche; Indianapolis, Ind.)). Cell lysates were sonicated for 10 sec and cleared by centrifugation at 14,000 rpm for 10 min at 4° C. Cleared lysates were boiled in sample buffer and loaded onto 10% SDS-PAGE gel. For immunoblotting analysis, proteins were transferred onto Immobilon PVDF membrane (Millipore; Bedford, Mass.) and visualized with Western Lightning Plus chemiluminescence kit (Perkin Elmer; Boston, Mass.).

[8] = test system: Amp+ cells; test: Apoptosis induction (cleaved caspase-3 staining, PARP cleavage), Amp+ cells; assay type: cell-based, human
Experimental: as §4
Cells were plated on coverslips in 12-well dishes and grown to approximately 75% confluency in 10% serum. […] After 72 h the cells were fixed with 4% paraformaldehyde for 20 minutes. Permeabilization with 1% NP40 for 5 minutes was followed by blocking with 3% BSA for 30 minutes. The coverslips were then incubated overnight at 4° C. with cleaved caspase-3 antibody at 1:200 dilution. The next day, the coverslips were washed 3 times with PBS and incubated with a secondary antibody (goat anti-rabbit FITC-conjugated) for 1 h at 1:250 dilution. Following 5 washes with PBS, coverslips were mounted in Vectashield mounting medium containing DAPI (Vector Laboratories; Burlingame, Calif.).
Apoptosis Induction Assay. […] After 72 h, cells were fixed with 4% paraformaldehyde for 20 min, permeabilized by using 1% Nonidet P-40 for 5 min, and blocked with 3% BSA for 30 min. The coverslips were then incubated overnight at 4° C. with cleaved caspase-3 antibody at 1:200 dilution. The next day, the coverslips were washed three times with PBS and incubated with a secondary antibody (goat anti-rabbit FITC-conjugated) for 1 h at 1:250 dilution. After five washes with PBS, coverslips were mounted in Vectashield mounting medium containing DAPI (Vector Laboratories), and staining was visualized by fluorescent microscopy.

[9] = test system: Amp− cells; test: Growth curve (SYTO60), Amp− cells; assay type: cell-based, human; details: 1 μM, up to 6 days
[10] = test system: Amp+ cells; test: MTT viability, gastric cancer cell lines with MET amplification; assay type: cell-based, human; details: 5 of 5 Amp+ cell lines, 96 h
[11] = test system: MET; test: Immunoblot of constitutive MET autophosphorylation in Amp+ cells; assay type: cell-based, human; details: 50 nM, 3 h
[12] = test system: Amp− cells; test: MTT viability, gastric cancer cell lines without MET amplification; assay type: cell-based, human; details: 12 of 12 Amp− cell lines, 96 h
[13] = test system: ERK1/2, AKT, STAT3, or FAK; test: Immunoblot of baseline phosphorylation of downstream effectors in Amp− cells; assay type: cell-based, human; details: 3 h
Experimental: as §3, §4, §5

Compound: COc1cc2ncnc(Nc3ccc(F)c(Cl)c3)c2cc1OCCCN1CCOCC1 [gefitinib]
- Extreme sensitivity (concentration) [1]: 100 nM
- sensitivity in the assay [2]: relatively resistant

Compound: COC(=O)[C@@]1(O)C[C@H]2O[C@]1(C)n1c3ccccc3c3c4c(c5c6ccccc6n2c5c31)C(=O)NC4 [K252a]
- inhibition of Met mediated signals [3]: inhibit Met mediated signals at nanomolar concentrations
- Met autophosphorylation [4]: inhibits Met autophosphorylation
- Met-driven proliferation [5]: reduces Met-driven proliferation

Compound: Cc1[nH]c(/C=C2\C(=O)Nc3ccc(S(=O)(=O)Cc4c(Cl)cccc4Cl)cc32)c(C)c1C(=O)N1CCC[C@@H]1CN1CCCC1 [PHA-665752, (3Z)-5-[(2,6-dichlorobenzyl)sulfonyl]-3-[(3,5-dimethyl-4-{[(2R)-2-(pyrrolidin-1-ylmethyl)pyrrolidin-1-yl]carbonyl}-1H-pyrrol-2-yl)methylene]-1,3-dihydro-2H-indol-2-one]
- Extreme sensitivity (concentration) [6]: 100 nM
- baseline phosphorylation of downstream effectors ERK1/2, AKT, STAT3, FAK [7]: effectively abrogated
- induction of apoptosis ([8]; Amp+ cells, cleaved caspase-3 (1 μM, 72 h), PARP cleavage (500 nM, 72 h)): apoptosis
- course of cell death ([8]; MKN45 cells): more delayed but prolonged cell death
- PARP-cleavage signal ([8]; SNU-5 cells, 72 h): prominent PARP-cleavage signal
- effect on proliferation rate [9]: unaffected
- effect on number of viable cells [10]: dramatic decrease in the number of viable cells; also recorded: dramatic reduction in cell numbers
- constitutive MET autophosphorylation [11]: effectively suppressed
- effect on number of viable cells [12]: resistant; also recorded: no effect
- baseline phosphorylation of ERK1/2, AKT, STAT3, FAK [13]: no effect
